Measurements: EP2646421B1, “7-NITRO-5-PHENYL-1-(PYRROLIDIN-1-YLMETHYL)-1H-BENZO[E][1,4]DIAZEPIN-2(3H)-ONE AND OTHER BENZODIAZEPINE DERIVATIVES” (Pignataro, Giuseppe, priority 2010, dated 2012)

Key:
Type in all cases: cell-based
NCX1 [1] = target: T1, NCX1 (Canis lupus familiaris, UniProt P23685); test: Fura-2 AM single-cell microfluorimetry, BHK-NCX1 cells; conditions: 10 nM (Fig. 2)
T1 construct: expressed in transfected cells
Procedure: (§1) The activity of NCX was established by means of three different subclones of baby hamsted kidney (BHK) cells that were stably transfected with one of each NCX isoforms, named BHK-NCX1, BHK-NCX2 and BHK-NCX3. These cell lines were grown on plastic dishes in a mix of DMEM and Ham's F12 media (1:1) (Gibco, Invitrogen, MI, Italy) supplemented with 5% fetal bovine serum, 100 U/ml penicillin, and 100 µg/ml streptomycin (Sigma, St. Louis, Missouri, USA). Cells were cultured in a humidified 5% CO2 atmosphere and at the temperature of 37°C.
(§2) NCX activity has been measured considering the variation of intracellular concentrations of Ca^2+ ions ([Ca^2+]i) due to its activation by means of single-cell microfluorimetry. […] In both cases, this probe will produce an emission at 510 nm; the ratio between the two emission relative to 340 and 380 excitation allow to quantify [Ca^2+]i in the time considering the calibration curve previously performed. […]
(§3) Briefly, BHK cells wild type and/or BHK trasnsfected with NCX mutants, grown on glass coverslips, were loaded with Fura-2 acetoxymethyl ester (Fura-2AM) (10 µM) for 30 minutes at 37°C in normal Krebs solution containing the following (in mM): 5.5 KCI, 160 NaCl, 1.2 MgCl2, 1.5 CaCl2, 10 glucose, and 10 Hepes-NaOH, pH 7.4. […] Fura-2 fluorescence intensity was measured every 3 seconds. […]

NCX1 [2] = target: T1, NCX1; test: Patch-clamp electrophysiology (whole-cell NCX currents), BHK-NCX1 cells; conditions: 10 nM, 10 minutes
Procedure: To further investigate the effects of this compound on the Na^+/Ca^2+ exchanger activity, we performed electrophysiological experiments on BHK cells stably transfected with each of NCX isoforms (named BHK-NCX1, BHK-NCX2 and BHK-NCX3).
as §1
NCX currents (/NCX) was recorded from BHK wild-type and BHK stably transfected cells with NCX1, NCX2, and NCX3 and all each mutated of single isoforrms by patch-clamp technique in whole-cell configuration. […] Data were acquired and analyzed by use of pClamp software (version 9.0, Molecular Devices). In brief, /NCX was recorded starting from a holding potential of -60 mV up to a short-step depolarization at +60 mV (60 ms) (He et al., 2003; Xiao et al., 2004). […] The current recorded in the descending portion of the ramp (from +60 to -120 mV) was used to plot the current-voltage (I-V) relation curve. […]

NCX3 = target: T2, NCX3 (Rattus norvegicus, UniProt P70549); test: Fura-2 AM single-cell microfluorimetry, BHK-NCX3 cells; conditions: 10 nM (Fig. 2)
T2 construct: expressed in transfected cells
T2 sequence (P70549 31-927): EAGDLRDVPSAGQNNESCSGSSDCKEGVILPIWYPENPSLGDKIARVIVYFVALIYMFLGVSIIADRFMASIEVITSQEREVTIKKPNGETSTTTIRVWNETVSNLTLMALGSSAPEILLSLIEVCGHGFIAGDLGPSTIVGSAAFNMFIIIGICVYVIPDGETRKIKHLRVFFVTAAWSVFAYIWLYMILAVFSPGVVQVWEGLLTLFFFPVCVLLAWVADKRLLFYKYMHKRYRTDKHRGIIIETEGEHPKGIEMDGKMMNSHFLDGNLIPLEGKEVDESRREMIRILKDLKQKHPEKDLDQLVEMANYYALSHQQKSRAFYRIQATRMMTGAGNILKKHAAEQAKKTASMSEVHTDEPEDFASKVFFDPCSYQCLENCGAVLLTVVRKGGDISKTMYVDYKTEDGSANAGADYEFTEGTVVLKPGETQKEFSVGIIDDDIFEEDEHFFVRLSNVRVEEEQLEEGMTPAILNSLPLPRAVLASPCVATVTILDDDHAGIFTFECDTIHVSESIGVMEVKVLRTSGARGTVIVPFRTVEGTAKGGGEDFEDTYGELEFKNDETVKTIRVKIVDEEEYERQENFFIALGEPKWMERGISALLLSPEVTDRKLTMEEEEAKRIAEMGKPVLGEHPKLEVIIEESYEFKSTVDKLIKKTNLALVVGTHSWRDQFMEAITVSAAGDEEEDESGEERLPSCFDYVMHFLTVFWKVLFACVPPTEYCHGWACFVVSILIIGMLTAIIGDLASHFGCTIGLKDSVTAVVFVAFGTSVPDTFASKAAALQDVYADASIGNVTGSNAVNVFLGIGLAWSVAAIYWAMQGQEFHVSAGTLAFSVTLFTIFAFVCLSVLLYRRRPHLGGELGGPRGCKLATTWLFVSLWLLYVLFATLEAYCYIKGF
Procedure: as §1, §2, §3

T1 sequence (P23685 33-970): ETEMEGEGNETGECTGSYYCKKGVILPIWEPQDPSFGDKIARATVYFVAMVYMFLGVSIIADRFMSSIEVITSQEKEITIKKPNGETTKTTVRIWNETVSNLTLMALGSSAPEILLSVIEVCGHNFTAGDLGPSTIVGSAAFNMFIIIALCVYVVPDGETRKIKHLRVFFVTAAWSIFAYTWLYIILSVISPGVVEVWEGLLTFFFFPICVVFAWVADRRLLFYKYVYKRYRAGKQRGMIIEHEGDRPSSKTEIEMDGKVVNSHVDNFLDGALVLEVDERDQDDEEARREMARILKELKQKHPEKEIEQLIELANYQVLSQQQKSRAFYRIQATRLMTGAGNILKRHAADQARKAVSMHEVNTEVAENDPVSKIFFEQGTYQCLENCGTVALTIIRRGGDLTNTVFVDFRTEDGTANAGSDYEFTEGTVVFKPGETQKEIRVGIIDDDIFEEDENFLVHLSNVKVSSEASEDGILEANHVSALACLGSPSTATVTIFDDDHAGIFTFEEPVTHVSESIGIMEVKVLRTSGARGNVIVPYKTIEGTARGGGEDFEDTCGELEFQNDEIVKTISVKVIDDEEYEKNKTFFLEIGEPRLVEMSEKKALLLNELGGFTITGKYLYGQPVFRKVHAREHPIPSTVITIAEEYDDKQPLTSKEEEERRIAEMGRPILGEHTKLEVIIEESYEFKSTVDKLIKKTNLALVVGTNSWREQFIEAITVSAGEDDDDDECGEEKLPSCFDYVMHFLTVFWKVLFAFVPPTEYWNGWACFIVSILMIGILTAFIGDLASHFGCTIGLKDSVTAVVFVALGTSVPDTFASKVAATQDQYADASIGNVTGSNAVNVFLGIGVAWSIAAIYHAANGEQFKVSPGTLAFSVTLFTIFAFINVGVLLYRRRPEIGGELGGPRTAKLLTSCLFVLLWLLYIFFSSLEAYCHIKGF

## O=C1CN=C(c2ccccc2)c2cc([N+](=O)[O-])ccc2N1CN1CCCC1 [neurounina-1, 7-nitro-5-phenyl-1-(pyrrolidin-1-ylmethyl)-1H-benzo[e][1,4]diazepin-2(3H)-one]
NCX1 [1]
  increased reverse mode activity of NCX1: 30%
NCX1 [2]
  increased forward and reverse activity of NCX1: 60%
NCX3
  activity of Na+/Ca2+ exchange in BHK cells expressing NCX3: did not show any significant difference
